Laboratory results from US20230365673A1, “MEANS FOR REDUCING RADIO- AND CHEMOTHERAPY RESISTANCE AND ADVERSE EFFECTS” (JOHANN WOLFGANG GOETHE-UNIVERSITÄT FRANKFURT AM MAIN, priority 2020, published 2023).

Key:
[1] = system: APTKA medium conditioned mouse fibroblasts; test: p21, pH2AX and SA-βgal staining of APTKA medium conditioned fibroblasts; format: cell-based; conditions: 5-FU treated vs non-treated
Experimental: (§1) FIG. 7: (A) APTKA organoids orthotopic transplantation into C57BL/6 mice followed by 5-fluorouracil (5-FU) chemotherapy (20 mg/Kg/day every 4 days for 21 days—experiment end point). Tumour area (mm3), % invasive area and liver metastasis frequency in untreated and 5-FU treated APTKA tumours (n=2 mice per group). Significant p-value<0.05 by t-test. (B and C) p21, pH2Ax IF and SA-ß gal staining quantifications and representative SA-ß gal staining images among untreated and 5-FU treated IL-1α (1 μg/mL) stimulated human fibroblasts and APTKA conditioned medium treated mouse fibroblasts. Significant p-value<0.05. Results representative of 4 independent experiments. Scale bars=100 μm.
In staining experiments, the inventors quantified the presence of nuclear p21, nuclear phosphorylated H2AX (pH2AX) and SA-βgal in APTKA medium conditioned mouse fibroblasts that were either left untreated or treated with 5-FU. […] (FIG. 7B). Overall, these experiments confirmed a chemotherapy induced senescence of the fibroblasts, when exposed to 5-FU.

[2] = system: IL-1α stimulated human fibroblasts; test: p21, pH2AX and SA-βgal staining of IL-1α stimulated fibroblasts; format: cell-based; conditions: IL-1α 1 μg/mL stimulated, 5-FU treated vs untreated
Experimental: as §1
Moreover, the inventors investigated the influence of chemotherapy on the IL-1α mediated changes to the tumour microenvironment in human cancer patients. Using staining experiments, the upregulation of pH2AX, p21, and SA-βgal in untreated and 5-FU treated IL-1α (1 μg/mL) stimulated human fibroblasts was quantified. […] Thus, targeting IL-1 in combination with chemotherapy may provide a substantial benefit particularly in tumours that are known to contain inflammatory cancer-associated fibroblasts such as pancreatic cancer, breast cancer or head and neck cancers.

[3] = system: APTKA orthotopic tumours; test: Orthotopic APTKA organoid model with 5-FU chemotherapy, with or without radiotherapy; format: in vivo, C57BL/6 mice; conditions: 21 days
Experimental: as §1
The inventors further investigated, whether therapy resistance of tumours during treatment with cytotoxic chemotherapy is also connected to the senescence behavior of CAFs. For this, the orthotopic APTKA organoid C57BL/6 mice of the inventors' murine model were divided in three groups and subjected to different treatments. The groups consisted of a control group of untreated mice, a second group that was administered 20 mg/kg/day of the cytotoxic chemotherapeutic agent […] (5-FU) every 4 days and a third group that was treated with a therapy based on a concomitant administration of 5-FU and radiation therapy based on a fractionated irradiation schedule (5×2 Gy). After 21 days of treatment, parameters of tumour progression were determined. […] Overall, in vivo administration of the chemotherapy aggravated invasive growth and stimulated formation of liver metastases similarly to irradiation.

[4] = system: primary mouse colon fibroblasts; test: Inflammatory gene expression (RT-qPCR/RNAseq) in fibroblasts treated with APTKA conditioned medium; format: cell-based; conditions: APTKA conditioned medium, 24 h, RT-qPCR
Experimental: (A) Schematic illustration of APTKA or APTK organoids supernatant collection and treatment of primary mouse colon fibroblasts of unchallenged wildtype C57BL/6 mice. […] (F) Relative expression analysis by RT-qPCR of inflammatory genes in untreated wildtype and APTKA conditioned medium treated fibroblasts in the presence of IKKß inhibitor ML120B (30 μM) and p38 MAPK inhibitor SB203580 (10 μM) for 24 h (n=4 independent wells per group). Data are mean±SD. p<0.05 by one-way ANOVA followed by Tukey's multiple comparisons test. Representative results from one experiment which has been independently repeated 3 times. (G and H) RNA sequencing analysis of APTKA (n=3) and APTK (n=3) organoids: (G) heat map analysis; (H) differentially expressed cytokines in APTKA (Log 2 fold change≤−1) compared to APTK organoids (log 2 fold Change≥1). p-value<0.05. (I) RT-qPCR analysis of inflammatory genes in APTKA conditioned fibroblasts treated with control IgG, α-IL-1α, α-IL-33, α-TNF-α, α-BAFF or α-CXCL16 neutralizing antibodies (2 μg/mL each) for 24 h (n=4 independent wells per group). Data are mean±SD. **** p<0.0001 by one-way ANOVA followed by Tukey's multiple comparisons test. Experiment performed twice. (J) RNA expression profiles of inflammatory genes in APTKA conditioned fibroblasts stimulated for 24 h then subjected to anakinra (10 μg/mL), APTKA fresh or regular medium treatments for another 24 h (n=4 independent wells per condition). Data are mean±SD; p<0.05 by one-way ANOVA followed by Tukey's multiple comparisons test. Representative results from one experiment which has been independently repeated 2 times.
To examine whether APTK and APTKA tumour organoids differentially affect surrounding fibroblasts in tumours directly in a paracrine manner, supernatants were collected from both tumour organoid lines and treated primary intestinal fibroblasts of unchallenged wildtype mice for 24 hours with the two different tumour-conditioned media ex vivo (FIG. 3A). RNAseq analysis confirmed distinct gene expression patterns in fibroblasts exposed to the two organoid supernatants (FIG. 3B).
The inventors then aimed to identify the upstream factors secreted by APTKA organoids that were responsible for activating NF-κB and p38 in fibroblasts. To this end RNAseq analysis of APTK and APTKA tumour organoids were performed and identified several differentially expressed genes encoding cytokines (FIG. 3G, H). Using neutralizing antibodies, NF-κB and p38 inducing cytokines TNFα, IL-1α, IL-33, BAFF or CXCL16 were blocked in APTKA supernatants and expression of Cxcl1, Cxcl2, Cxcl5 and Ilia as inflammatory marker genes in fibroblasts was examined.
To do so, fibroblasts were stimulated for 24 hours with APTKA conditioned medium before adding anakinra, adding fresh APTKA medium or changing medium to regular medium.

[5] = system: colon fibroblasts; test: Nitrite concentration by Griess assay in fibroblast supernatants; format: cell-based, mouse; conditions: APTKA-conditioned medium plus W1400 1 mM
Experimental: (§2) (A) Schematic illustration of APTKA organoids supernatant collection and treatment of colon fibroblasts from unchallenged wildtype C57BL/6 mice for 12 h followed by 3×2 Gy irradiation. Microscopic, proteomic & transcriptomic analysis were performed 72 h post first irradiation. (B) Microscopic captures of non-irradiated wildtype (WT) and APTKA conditioned fibroblasts. Remaining captures belong to irradiated fibroblasts: WT, IL-1α (1 μg/mL) stimulated WT, and APTKA conditioned media minus or plus anakinra (20 μg/mL) treated fibroblasts. Scale bars=200 μm. (C) Mass spectrometric analysis of matrisome profiles of 3×2 Gy irradiated (n=8) and non-irradiated (n=8) APTKA conditioned fibroblasts. […] (G) Immunoblot analysis of untreated and irradiated APTKA conditioned fibroblasts. Representative results from one experiment which has been independently repeated 2 times. (H) SA-ß gal staining of untreated and irradiated APTKA fibroblasts. Scale bars=100 μm. (I and J) p21 and pH2AX immunofluorescent staining of untreated and irradiated APTKA fibroblasts. Scale bars=[…]. Data are mean±SD. ** […] and *** p<0.001 by t-test. (K) Nitrite concentration determined by Griess assay in conditioned media from WT, APTK media, APTKA media, IL-1α (1 μg/mL) stimulated and APTKA plus anakinra (20 μg/mL) treated fibroblasts for 72 h (n=10 independent wells per group). […]

[6] = system: APTKA conditioned fibroblasts; test: Senescence induction in fibroblasts treated with APTKA-conditioned medium; format: cell-based, mouse; conditions: APTKA-conditioned medium plus W1400
Experimental: as §2

[7] = system: colon fibroblasts; test: Oxidative DNA damage by 8-OHdG immunofluorescence in fibroblasts; format: cell-based, mouse; conditions: APTKA-conditioned medium plus W1400 1 mM, 72 h
Experimental: as §2

[8] = 5-FU only, 20 mg/kg/day every 4 days, vs untreated control
[9] = concomitant 5-FU and radiotherapy (5×2 Gy), vs untreated control

Question: Which SA-βgal staining [1] does the source give for `O=c1[nH]cc(F)c(=O)[nH]1` [5-FU, 5-fluorouracil] here?
Answer: The SA-βgal staining was “significant upregulation of SA-βgal”.

Question: And the “nuclear p21” value [1]?
Answer: Its value is “significant upregulation of SA-βgal and nuclear p21”.

Question: What about the “nuclear phosphorylated H2AX (pH2AX)” value [1] of the same molecule?
Answer: The value was “significant increase of pH2AX”.

Question: And the SA-βgal [2]?
Answer: Its SA-βgal is “significant increase of all three biomarkers”.

Question: What about the p21 [2] of the same molecule?
Answer: Its p21 is “significant increase of all three biomarkers”.

Question: What about the pH2AX [2] of the same molecule?
Answer: The pH2AX was “significant increase of all three biomarkers”.

Question: What about the liver metastases [3, 8] of the same molecule?
Answer: The liver metastases was “have developed liver metastases”.

Question: What about the tumour area [3, 8] of the same molecule?
Answer: Its tumour area is “significant increase in tumour area”.

Question: What about the “tumour invasiveness (% invasive area)” value [3, 8] of the same molecule?
Answer: Its value is “significant increase in tumour area and tumour invasiveness”.

Question: And the liver metastases ([3]; concomitant 5-FU and radiotherapy (5×2 Gy))?
Answer: The liver metastases was “every mouse of this group suffered from liver metastases”.

Question: And the invasive area [3, 9]?
Answer: Its invasive area is “significant increase in tumour area and invasive area”.

Question: What about the tumour area [3, 9] of the same molecule?
Answer: Its tumour area is “significant increase in tumour area”.

Question: With `COc1c(Cl)cc2c([nH]c3cnccc32)c1NC(=O)c1cccnc1C` [ML120B] as the molecule, how does the “induction of pro-inflammatory genes (Cxcl1, Cxcl2, Cxcl5, Mmp9, Mmp13, Il1a, 116, Tnfa, Nos2)” value ([4]; ML120B 30 μM) read?
Answer: The value was “significantly inhibited the induction of pro-inflammatory genes”.

Question: For `C[S+]([O-])c1ccc(-c2nc(-c3ccncc3)c(-c3ccc(F)cc3)[nH]2)cc1` (centres unmarked) [SB203580], which “induction of pro-inflammatory genes (Cxcl1, Cxcl2, Cxcl5, Mmp9, Mmp13, Il1a, 116, Tnfa, Nos2)” value ([4]; SB203580 10 μM) is on record?
Answer: The value was “significantly inhibited the induction of pro-inflammatory genes”.

Question: How did the nitrite production [5] turn out when `CC(=N)NCc1cccc(CN)c1` [W1400] was run?
Answer: The nitrite production was “blocked nitrite production”.

Question: And the senescence induction [6]?
Answer: The senescence induction was “prevented oxidative DNA damage as well as senescence induction”.

Question: What about the “oxidative DNA damage (8-OHdG immunofluorescence)” value [7] of the same molecule?
Answer: The value was “prevented oxidative DNA damage”.
